Source: patent publication US9682085B2, “Anti-proprotein convertase subtilisin kexin type 9 (anti-PCSK9) compounds and methods of using the same in the treatment and/or prevention of cardiovascular diseases” (Shifa Biomedical Corporation, priority 2013, dated 2017)

Experiments:
HepG2 cells = assay: Uptake of Fluorescent Dil-LDL in HepG2 cells in situ; type: cell-based; conditions: various concentrations (FIG. 6)
Description: The SBC compounds were validated for their ability to increase uptake of Fluorescent Dil-LDL in HepG2 cells.
We also tested the ability of the PCSK9 compounds to enhance the uptake of Fluorescent Dil-LDL in HepG2 cells. Briefly, HepG2 cells were plated and allowed to grow overnight. Compounds were added to the cells followed by the addition of Fluorescent Dil-LDL. Cells were washed extensively, and the Fluorescent Di-LDL taken up by the cells were measured using the Synergy 2 plate reader (FIG. 6).

mice fed high fat diet = assay: Test for efficacy in animal model (mice fed high fat diet); type: in vivo, mice (C57BL/6)
Description: SBC-115,076, and SBC-110,034 were tested for their efficacy in male mice (C57BL/6 mice). Mice were housed as four animals per cage under climate-controlled conditions of temperature (20-24° C.), humidity (60-70%), and alternating 12 h light/dark cycles. One group was fed commercial chow diet (Prolab RMH 3000, PMI feeds, St. Louis, Mo.) to serve as a negative control, while the other four groups were fed high fat diet (TD.06414), which provides 60% of calories from fat. Water was provided ad libitum. Plasma was collected once weekly to monitor the level of LDL. After 4 weeks of feeding a high fat-diet, mice were randomly assigned to one of several groups such that the average LDL levels were equal among different groups. […] Blood samples (75 μl) were collected twice weekly after drug administration from the retro-orbital venous plexus via heparinized capillary tubes containing 2 USP units of ammonium heparin per tube (Carolina, Burlington, N.C.). Plasma were separated immediately by centrifugation (5,000×g) for 5 min at room temperature and then kept at −80° C. until assayed for lipid profile. Plasma cholesterol, LDL-C, HDL-C, and triglyceride levels are measured enzymatically. Additionally, the plasma levels of PCSK9 and chemokines/cytokines were measured for potential pleiotropic effects of PCSK9 inhibitors using ELISA and multiplex assays.

PCSK9 = target: T1, PCSK9 (Homo sapiens, UniProt Q8NBP7); conditions: single injection, clinical trial; cited from earlier work
T1 construct: host or cells: patients (endogenous circulating PCSK9)

[1] = 8 mg/kg daily s.c., after two weeks, P<0.01 (FIG. 8)
[2] = second study, 40 mg/kg, after three weeks, P<0.01

T1 sequence (Q8NBP7 153-692): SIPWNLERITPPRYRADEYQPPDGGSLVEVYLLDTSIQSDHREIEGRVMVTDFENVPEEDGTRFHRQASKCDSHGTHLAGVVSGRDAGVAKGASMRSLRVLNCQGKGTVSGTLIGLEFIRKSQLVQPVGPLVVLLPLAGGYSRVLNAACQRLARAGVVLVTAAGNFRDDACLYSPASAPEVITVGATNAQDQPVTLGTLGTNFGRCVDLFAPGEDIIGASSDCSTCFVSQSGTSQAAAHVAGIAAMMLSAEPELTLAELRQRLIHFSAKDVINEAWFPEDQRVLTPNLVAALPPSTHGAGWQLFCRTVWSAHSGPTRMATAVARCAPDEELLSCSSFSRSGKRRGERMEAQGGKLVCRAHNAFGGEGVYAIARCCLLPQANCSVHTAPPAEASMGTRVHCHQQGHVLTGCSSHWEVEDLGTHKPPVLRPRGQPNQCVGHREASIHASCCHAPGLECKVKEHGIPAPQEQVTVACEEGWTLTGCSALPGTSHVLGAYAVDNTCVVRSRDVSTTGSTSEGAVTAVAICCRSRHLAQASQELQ

Cc1cc(C(=O)C2=C(O)C(=O)N(CCCN3CCOCC3)C2c2ccncc2)ccc1OCc1ccccc1 (stereo not shown) [SBC-115,076]
uptake of Fluorescent Dil-LDL (HepG2 cells): increase in the Fluorescent Dil-LDL uptake using submicromolar concentrations
mean reduction in total cholesterol levels relative to high fat diet animal levels (mice fed high fat diet; [1]): 32%
mean reduction toward return to regular diet cholesterol levels (mice fed high fat diet; [1]): 50%
cholesterol levels in mice fed high fat diet (mice fed high fat diet; 8 mg/kg daily subcutaneously for two weeks): lowered cholesterol levels

CC(C)c1c(C(=O)Nc2ccccc2)c(-c2ccccc2)c(-c2ccc(F)cc2)n1CC[C@@H](O)C[C@@H](O)CC(=O)O [Atorvastatin, reference compound]
mean reduction in total cholesterol levels relative to high fat diet animal levels (mice fed high fat diet; [2]): 27%
mean reduction toward return to regular diet cholesterol levels (mice fed high fat diet; [2]): 44%

REGN727: Regeneron/Sanofi fully-human PCSK9 monoclonal antibody
reduction of LDL levels (PCSK9): more than 60%
